What all share (format): in vivo, CD-1 mice
Test [1] deals with L-NAME-induced pre-eclampsia animal model. The experiment in a line: Blood pressure on day 12 of gestation in L-NAME-induced pre-eclampsia model. The note with it: days 1-18 of pregnancy, vs pregnancy model group. How it is done: (§1) Pregnant CD-1 mice (age 8-10 weeks) were randomly divided into control and pre-eclampsia model groups. On days 7-16 of the gestational cycle, the model group mice were induced with preeclampsia by subcutaneous injection of 50 mg/kg of N-nitro-L-arginine methyl ester (L-NAME) daily. For the control group, an equal volume of the solvent was injected subcutaneously. [table] In animal models of L-NAME-induced pre-eclampsia, symptoms of hypertension appear two days after the first administration of L-NAME and persist until at least five days after the first administration of L-NAME, according to the literature. The appearance of proteinuric symptoms was relatively late. Therefore, in this experiment, we focused on monitoring the blood pressure of […] on day 12 of gestation (i.e., five days after the first administration of L-NAME), as well as collecting 24-hour urine on day 17-18 of gestation and measuring the level of total protein. Also, we recorded the number of pups produced by each group of pregnant rats.

Test [2] shares this test system. The experiment in a line: 24-hour urinary total protein on days 17-18 of gestation in L-NAME-induced pre-eclampsia model. The following applies: for L-NAME-induced 24-hour urinary protein elevation: vs pregnancy model group. How it is done:
as §1

Test [3] has the same test system. As to the kind of experiment: Number of pups (litter size) in L-NAME-induced pre-eclampsia model. Here is the method: as §1
[4] abbreviates: 90 mg/kg tail vein injection daily.
The mark [5] stands for this setting: 120 mg/kg tail vein injection daily.

Consider one compound from patent US20240009166A1, “USE OF ZANAMIVIR IN PREPARATION OF DRUG FOR TREATING OR PREVENTING PREECLAMPSIA” (Shenzhen Evergreen Therapeutics Co., Ltd., priority 2020, published 2024).

“Also recorded” adds a separate entry of the source.

As for `CC(=O)N[C@H]1[C@H]([C@H](O)[C@H](O)CO)OC(C(=O)O)=C[C@@H]1N=C(N)N` [zanamivir, 5-acetamido-4-[(aminoiminomethyl)-amino]-2,6-hydro-3,4,5-trideoxy-D-propanetriolyl-D-galactos-2-enolonic acid], the blood pressure entry in test [1] (setting [4]) is on record as “did not significantly change”. Also, the “L-NAME-induced increase in diastolic blood pressure” value in test [1] (setting [5]) was “significantly reduced”. In addition, the “L-NAME-induced increase in mean arterial pressure” value in test [1] (setting [5]) is “significantly reduced”. For the same compound, the “L-NAME-induced increase in systolic blood pressure” value in test [1] (setting [5]) is given as “significantly reduced”. For the same compound, the “L-NAME-induced 24-hour urinary protein elevation” value in test [2] (setting [4]) and in test [2] (setting [5]) was “significantly reduced” throughout. Further, the “L-NAME-induced elevation of 24-hour urinary protein” value in test [2] (FIG. 4 legend, dose not stated) is “significantly reduces”. For the same compound, the “reduction of litter size caused by L-NAME” value in test [3] (90 mg/kg tail vein injection daily, vs pregnancy model group) is given as “significantly improved”; in test [3] (120 mg/kg tail vein injection daily, vs pregnancy model group), “significantly improved; also recorded: returning to a level comparable to that of the pregnant control group”; in test [3] (FIG. 5 legend, dose not stated), “significantly improved”.
